Experimental data as given in patent publication US20060105458A1, “Caged tetracycline (derivatives), their generation, and their use for photoactivated gene expression” (priority 2002, published 2006).

Columns and labels:
[1] = tested on: tet-dependent chloramphenicol transferase (CAT) construct in organotypic hippocampal Müller cultures; test: Photoactivation of organotypic hippocampal Müller cultures (tet-dependent CAT transgene, immunohistochemistry); assay type: cell-based, rat or mouse
Procedure: FIG. 3 depicts a second assay to test photoactivation in tissues, exemplified by the use of organotypic hippocampal Müller cultures. […] After administration of caged doxycycline to the cells by adding it to the medium and subsequent photoactivation, CAT expression was assessed immuno-histochemically. […] CAT expression in the irradiated slice is mainly seen in cells at the border of the slice where cells become infected with viruses much more rapidly than in the center.
FIG. 4 illustrates the result of a further experiment performed by the present inventors. That is, in order to test if photoactivated gene expression can be used to induce gene expression in a locally restricted manner, adenovirus-infected Müller cultures were irradiated only in one half of the slice. […] Again, fluorescence is mostly seen at the slice boundary where the virus most readily infects cells of the culture. Thus, photoactivated gene expression provides the researcher with excellent spatial control over gene expression.
Mouse or rat hippocampal Müller cultures were prepared according to standard procedures from P5-7 animals. […] Following overnight incubation, 0.15 μM caged doxycycline was added to the medium, incubated for 1 h, and slices or selected regions of slices were irradiated for 10 sec with an upright fluorescence microscope using an appropriate filter (XF3000, OMEGA OPTICAL). Following overnight incubation, CAT fluorescence was detected immunohistochemically with a polyclonal anti-CAT antibody (Sigma).

[2] = tested on: CHO cells expressing the fusion protein and containing a tetracycline-dependent EGFP construct; test: Photoactivation of CHO cells (EGFP reporter); assay type: cell-based
Procedure: CHO cells mentioned above (that is, cells expressing the fusion protein^3 and containing a tetracycline-dependent EGFP) were used as a simple cell culture assay were propagated and plated according to standard cell culture procedures in Ham's F-12 medium. Cells were plated in 35 mm dishes with a glass bottom from Mattek. Two days after plating, cells were overlaid with 1% low-gelling agarose in Ham's F-12 containing 1 mM Na-butyrate and 0.3 μM caged doxycycline. Subsequently, a subset of cells was locally irradiated with a hand-held 6W UV lamp (365 nm) for 30 sec. Following overnight incubation, EGFP expression was assessed with a fluorescence microscope.

[3] = final concentration 0.1 to 1 μM, within 24 h at 37° C.
[4] = tested on: tet-dependent GFP construct in organotypic hippocampal Müller cultures; test: Photoactivation of organotypic hippocampal Müller cultures (tet-dependent GFP transgene); assay type: cell-based, rat or mouse; settings: 1.5 μM, optical fiber 200 μm, irradiated three times for 2 min with an interval of 1 hour
Procedure: FIG. 5 depicts a modified assay to test photoactivation in tissues, exemplified again by the use of organotypic hippocampal Müller cultures. […] To determine the maximal level of GFP expression that is possible with this approach, unmodified doxycycline was added in saturating concentrations (2 μM). […] The bright-field image on the right allows normal visualization of the culture (FIG. 5b).
FIG. 6: In a new set of experiments, photoactivation was done by using thin optical fibers (200 μm) for irradiation with the UV light coming from a Xenon arc lamp. The UV beam could be positioned with the help of a recording electrode that was aligned to be in the center of the circular irradiation area. About half of the culture was irradiated with this arrangement. The position of the electrode is indicated by the red dot. The culture was incubated with 1.5 μM caged doxycycline one hour prior to irradiation. Cultures were irradiated three times for 2 min with an interval of 1 hour. […] FIG. 6b indicates the electrode position relative to the whole culture.

| Compound | Local expression of genes/transgenes on irradiation ([1]; irradiated CHO cells or organotypic hippocampal Müller cultures) | EGFP fluorescence, irradiated cells ([2]; CHO cells incubated with caged compound (0.3 μM), UV 365 nm 30 sec, overnight incubation) | EGFP fluorescence, cells not irradiated ([2]; cells in the same dish that were not irradiated) | CAT expression, unirradiated control slice ([1]; no irradiation) | CAT expression, irradiated slice ([1]; single pulse of UV irradiation, 0.15 μM caged doxycycline) | Spontaneous decomposition under incubation conditions [3] | GFP expression after local UV irradiation [4] |
| --- | --- | --- | --- | --- | --- | --- | --- |
| COc1cc(C(C)O[C@]23C(=O)C(C(N)=O)=C(O)[C@H](N(C)C)[C@H]2[C@H](O)[C@@H]2C(=C3O)C(=O)c3c(O)cccc3[C@H]2C)c([N+](=O)[O-])cc1OC (stereo partly shown) [DMNPE-caged doxycycline, 1-(4,5-dimethoxy-2-nitrophenyl)-ethyl-caged doxycycline] | specific, time-dependent, and local expression of genes/transgenes | widespread EGFP fluorescence | did not fluoresce | – | – | – | – |
| 1-(4,5-dimethoxy-2-nitrophenyl)-ethyl-caged doxycycline [DMNPE-caged doxycycline] | – | – | – | did not display any CAT expression | CAT expression in a few cells | about 10% | GFP positive cells that are within the circular irradiation area |
